≈ marks a conversion by molar mass, not a printed value. Like-named read-outs stand apart in the source and are kept apart here.
Legend:
human (hACC2) ACC2 = human (hACC2) ACC2 (Homo sapiens, UniProt O00763); experiment: In vitro Acetyl-CoA Carboxylase (ACC) inhibition assay (ADP-Glo), hACC2; format: biochemical
Experimental: The detailed procedure is as follows. […] 10 μL ADP glo reagent was added. […] 20 μL kinase detection reagent was added.
“NA” stands for “not assayed.”

[1] = tested on: Fusarium moniliforme (Fm); experiment: Growth inhibition assay of fungal pathogens; format: cell-based; conditions: for IC90: Fusarium verticillioides, 48 h, read-out: Concentration at 90% Inhibition Fm
Method in brief: (§1)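 OD600 (blank-subtracted) plus visual scoring at 48 h, vs 2% DMSO ctrl → % inhibition. Final cpd 50/10/2 or 2/0.4/0.08 ppm. Fm/Bc/Dm spores in 17% V8 broth; Rs as 1.5 mm plugs in ¼ PDB.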

Septoria tritici (St) = experiment: Growth inhibition assay of fungal pathogens; format: cell-based; conditions: for IC90: Zymoseptoria tritici, read-out: Concentration at 90% Inhibition St
Method in brief: (§2)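 Liquid-culture assay in which test compounds are applied at three final concentrations (50, 10, 2 ppm or 2, 0.4, 0.08 ppm). Inoculum levels follow 48 h growth curves for each fungus. Growth is monitored by OD600 and by eye, and the 48 h values give % inhibition against DMSO.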

Rhizoctonia solani (Rs) = experiment: Growth inhibition assay of fungal pathogens; format: cell-based; conditions: 48 h, read-out: Concentration at 90% Inhibition Rs
Method in brief: as §1

[2] = tested on: Phytophthora capsici (Pc); experiment: Growth inhibition assay of fungal pathogens; format: cell-based; conditions: for IC90: Phytophthora capsici, read-out: Concentration at 90% Inhibition Pc
Method in brief: as §2

Botrtyis cinerea (Bc) = experiment: Growth inhibition assay of fungal pathogens; format: cell-based; conditions: 48 h, read-out: Concentration at 90% Inhibition Bc
Method in brief: as §1

Diplodia maydis (Dm) = experiment: Growth inhibition assay of fungal pathogens; format: cell-based; conditions: Stenocarpella maydis, 48 h, read-out: Concentration at 90% Inhibition Dm
Method in brief: as §1

[3] = tested on: Fusarium virguliforme (Fv); experiment: Growth inhibition assay of fungal pathogens; format: cell-based; conditions: 48 h
Method in brief: as §2

[4] = tested on: Collectotrichum graminicola (Cg); experiment: Growth inhibition assay of fungal pathogens; format: cell-based; conditions: 48 h, read-out: Concentration at 90% Inhibition Cg
Method in brief: as §2

fungal (fACC2) ACC2 = fungal (fACC2) ACC2 (UniProt Q00955); conditions: read-out: fACC2 IC50; fungal ACC2, ADP-Glo
Sequence of fungal (fACC2) ACC2 (Q00955 whole entry): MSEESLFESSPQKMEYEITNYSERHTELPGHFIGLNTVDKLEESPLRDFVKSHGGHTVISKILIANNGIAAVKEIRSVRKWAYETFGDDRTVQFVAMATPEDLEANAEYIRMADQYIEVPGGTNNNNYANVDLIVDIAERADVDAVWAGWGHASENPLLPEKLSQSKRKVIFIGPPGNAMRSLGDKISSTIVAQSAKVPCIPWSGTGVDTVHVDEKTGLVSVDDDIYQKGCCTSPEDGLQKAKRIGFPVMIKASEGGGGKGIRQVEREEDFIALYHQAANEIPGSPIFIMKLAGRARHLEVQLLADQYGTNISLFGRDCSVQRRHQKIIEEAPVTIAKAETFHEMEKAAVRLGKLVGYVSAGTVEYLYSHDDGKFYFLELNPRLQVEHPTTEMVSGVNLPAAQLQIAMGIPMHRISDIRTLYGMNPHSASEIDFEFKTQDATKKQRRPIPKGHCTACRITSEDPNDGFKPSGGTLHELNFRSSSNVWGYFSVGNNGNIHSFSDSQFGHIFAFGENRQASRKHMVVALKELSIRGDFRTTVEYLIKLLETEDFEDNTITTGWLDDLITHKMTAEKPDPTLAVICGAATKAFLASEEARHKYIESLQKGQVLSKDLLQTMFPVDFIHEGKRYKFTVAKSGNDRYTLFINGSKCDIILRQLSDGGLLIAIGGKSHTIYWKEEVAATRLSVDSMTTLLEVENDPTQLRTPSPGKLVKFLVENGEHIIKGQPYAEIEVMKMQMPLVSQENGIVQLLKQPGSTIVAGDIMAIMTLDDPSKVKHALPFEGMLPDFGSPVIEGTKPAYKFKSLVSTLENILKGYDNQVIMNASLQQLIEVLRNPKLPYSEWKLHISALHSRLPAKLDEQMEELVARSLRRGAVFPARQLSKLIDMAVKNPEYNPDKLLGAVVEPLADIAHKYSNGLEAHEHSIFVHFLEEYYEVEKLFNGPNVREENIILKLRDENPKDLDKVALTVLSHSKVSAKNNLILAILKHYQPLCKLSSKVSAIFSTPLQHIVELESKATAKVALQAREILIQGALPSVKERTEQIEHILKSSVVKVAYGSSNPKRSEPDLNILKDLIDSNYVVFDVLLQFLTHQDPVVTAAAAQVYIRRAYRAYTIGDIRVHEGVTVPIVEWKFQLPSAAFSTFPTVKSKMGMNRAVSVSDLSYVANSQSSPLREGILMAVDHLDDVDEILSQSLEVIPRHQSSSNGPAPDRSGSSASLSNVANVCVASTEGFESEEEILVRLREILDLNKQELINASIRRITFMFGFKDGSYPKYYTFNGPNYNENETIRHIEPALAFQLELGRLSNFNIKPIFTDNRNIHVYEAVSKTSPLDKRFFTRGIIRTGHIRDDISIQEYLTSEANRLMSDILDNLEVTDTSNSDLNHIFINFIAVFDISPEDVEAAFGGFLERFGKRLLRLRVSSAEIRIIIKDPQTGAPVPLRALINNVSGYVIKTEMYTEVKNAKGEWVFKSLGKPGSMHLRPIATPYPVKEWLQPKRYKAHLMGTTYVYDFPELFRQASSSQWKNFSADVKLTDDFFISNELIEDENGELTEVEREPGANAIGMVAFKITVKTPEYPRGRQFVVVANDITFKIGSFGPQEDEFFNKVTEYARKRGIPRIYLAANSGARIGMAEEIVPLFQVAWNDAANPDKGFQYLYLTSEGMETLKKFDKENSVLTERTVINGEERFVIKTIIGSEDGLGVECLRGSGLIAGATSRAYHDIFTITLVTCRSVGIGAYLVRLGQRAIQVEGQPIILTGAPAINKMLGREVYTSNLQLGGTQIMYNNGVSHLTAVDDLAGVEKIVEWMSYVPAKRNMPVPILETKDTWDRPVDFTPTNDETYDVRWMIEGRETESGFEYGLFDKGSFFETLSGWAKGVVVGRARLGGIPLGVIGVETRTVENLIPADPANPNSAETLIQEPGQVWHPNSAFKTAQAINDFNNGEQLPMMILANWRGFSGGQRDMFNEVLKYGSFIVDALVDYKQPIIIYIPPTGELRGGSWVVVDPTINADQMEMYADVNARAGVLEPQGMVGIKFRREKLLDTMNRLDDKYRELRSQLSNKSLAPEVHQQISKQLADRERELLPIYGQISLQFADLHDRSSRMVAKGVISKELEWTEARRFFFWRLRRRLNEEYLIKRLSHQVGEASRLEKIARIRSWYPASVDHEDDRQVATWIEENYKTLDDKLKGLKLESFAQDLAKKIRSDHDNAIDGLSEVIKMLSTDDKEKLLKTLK

C. krusei ATCC 6258 = experiment: Anti-Fungal (Candida) Activity Assay, broth microtiter MIC; format: cell-based; conditions: Pichia kudriavzevii, read-out: MIC C. krusei ATCC 6258
Method in brief: (§3)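 MIC by visual comparison of challenged wells with growth control, scored at 48 h. Setup: CLSI M27-A3 broth microtiter plates, RPMI 1640+MOPS medium, direct colony suspension from overnight Sabouraud agar cultures (35 °C, 24 h).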

[5] = tested on: C. parapsilosis ATCC 22019; experiment: as above; format: cell-based; conditions: Lodderomyces parapsilosis, read-out: MIC C. parapsilosis ATCC 22019
Method in brief: as §3

C. albicans ATCC 90028 = experiment: as above; format: cell-based; conditions: read-out: MIC C. albicans ATCC 90028
Method in brief: as §3

[6] = Table 4a, 48 hours, read-out: Concentration at 90% Inhibition Fv
[7] = Table 4b, 48 hours, read-out: Concentration at 90% Inhibition Fv
[8] = ATCC6258, 3 replicates, MIC recorded at 48 h
[9] = ATCC22019, 3 replicates, MIC recorded at 48 h
[10] = ATCC90028, 3 replicates, MIC recorded at 48 h
[11] = read-out: Concentration at 90% Inhibition Fv, Table 4a, 48 hours
[12] = read-out: Concentration at 90% Inhibition Fv, Table 4b, 48 hours

Sequence of human (hACC2) ACC2 (O00763 whole entry): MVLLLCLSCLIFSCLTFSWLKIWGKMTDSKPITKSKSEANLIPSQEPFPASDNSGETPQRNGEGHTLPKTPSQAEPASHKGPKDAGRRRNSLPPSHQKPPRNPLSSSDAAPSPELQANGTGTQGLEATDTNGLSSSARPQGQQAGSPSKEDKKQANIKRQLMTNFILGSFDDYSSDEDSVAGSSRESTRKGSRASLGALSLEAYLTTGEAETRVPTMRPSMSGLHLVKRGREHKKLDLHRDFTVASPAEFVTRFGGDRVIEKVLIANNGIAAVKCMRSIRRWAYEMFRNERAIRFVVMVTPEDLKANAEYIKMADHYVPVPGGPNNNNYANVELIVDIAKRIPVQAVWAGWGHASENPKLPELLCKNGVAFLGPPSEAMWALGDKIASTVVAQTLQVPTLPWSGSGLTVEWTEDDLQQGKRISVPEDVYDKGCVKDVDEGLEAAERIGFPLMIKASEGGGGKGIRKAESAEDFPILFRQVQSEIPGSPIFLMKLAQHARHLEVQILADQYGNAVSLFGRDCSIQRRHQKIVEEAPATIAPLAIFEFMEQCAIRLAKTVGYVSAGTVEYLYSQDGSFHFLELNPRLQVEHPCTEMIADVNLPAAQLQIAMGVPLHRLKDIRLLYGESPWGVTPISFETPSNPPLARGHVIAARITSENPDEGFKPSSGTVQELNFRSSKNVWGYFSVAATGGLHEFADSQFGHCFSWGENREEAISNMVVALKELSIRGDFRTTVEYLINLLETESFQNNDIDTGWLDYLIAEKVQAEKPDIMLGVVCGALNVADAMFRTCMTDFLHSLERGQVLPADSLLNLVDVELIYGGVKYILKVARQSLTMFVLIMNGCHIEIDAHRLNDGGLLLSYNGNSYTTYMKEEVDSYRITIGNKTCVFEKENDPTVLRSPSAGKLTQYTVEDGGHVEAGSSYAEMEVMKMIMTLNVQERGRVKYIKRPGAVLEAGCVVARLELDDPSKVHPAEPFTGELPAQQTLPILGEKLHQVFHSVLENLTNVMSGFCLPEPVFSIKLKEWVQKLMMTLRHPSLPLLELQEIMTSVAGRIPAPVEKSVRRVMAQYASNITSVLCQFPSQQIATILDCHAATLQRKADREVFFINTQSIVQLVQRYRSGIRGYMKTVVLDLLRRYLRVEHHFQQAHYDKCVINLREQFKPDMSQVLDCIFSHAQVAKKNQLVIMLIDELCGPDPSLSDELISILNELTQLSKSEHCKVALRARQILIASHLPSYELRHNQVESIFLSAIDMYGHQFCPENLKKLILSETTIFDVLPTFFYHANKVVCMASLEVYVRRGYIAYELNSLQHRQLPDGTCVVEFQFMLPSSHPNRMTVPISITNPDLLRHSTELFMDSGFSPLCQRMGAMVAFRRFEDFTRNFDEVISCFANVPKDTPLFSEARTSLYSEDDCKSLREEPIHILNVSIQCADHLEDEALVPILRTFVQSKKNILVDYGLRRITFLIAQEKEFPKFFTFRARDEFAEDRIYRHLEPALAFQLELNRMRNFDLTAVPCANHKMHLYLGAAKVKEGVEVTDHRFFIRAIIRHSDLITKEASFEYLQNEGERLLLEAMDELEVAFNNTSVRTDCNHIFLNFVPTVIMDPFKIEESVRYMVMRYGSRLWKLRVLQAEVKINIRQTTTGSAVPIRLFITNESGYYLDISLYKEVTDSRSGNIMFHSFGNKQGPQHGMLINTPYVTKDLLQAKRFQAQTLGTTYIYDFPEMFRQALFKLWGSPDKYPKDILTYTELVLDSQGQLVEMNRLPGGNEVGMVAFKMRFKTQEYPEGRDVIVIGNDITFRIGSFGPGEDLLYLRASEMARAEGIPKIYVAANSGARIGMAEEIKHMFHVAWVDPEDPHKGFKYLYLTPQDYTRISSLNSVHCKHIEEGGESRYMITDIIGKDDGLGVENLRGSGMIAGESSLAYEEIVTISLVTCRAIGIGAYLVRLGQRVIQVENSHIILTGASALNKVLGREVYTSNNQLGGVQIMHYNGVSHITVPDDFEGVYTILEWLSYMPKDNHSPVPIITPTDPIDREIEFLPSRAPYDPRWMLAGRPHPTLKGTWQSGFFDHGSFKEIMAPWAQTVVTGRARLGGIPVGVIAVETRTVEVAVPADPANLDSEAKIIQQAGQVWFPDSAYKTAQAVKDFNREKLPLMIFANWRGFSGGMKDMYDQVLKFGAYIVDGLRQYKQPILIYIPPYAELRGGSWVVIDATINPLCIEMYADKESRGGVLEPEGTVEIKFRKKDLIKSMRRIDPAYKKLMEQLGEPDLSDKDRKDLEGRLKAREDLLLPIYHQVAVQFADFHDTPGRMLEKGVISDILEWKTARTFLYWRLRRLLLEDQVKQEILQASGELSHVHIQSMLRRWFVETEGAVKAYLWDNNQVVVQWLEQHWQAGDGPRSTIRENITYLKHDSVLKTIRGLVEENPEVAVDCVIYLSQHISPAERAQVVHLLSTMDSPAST

| SMILES | IC50 (human (hACC2) ACC2) [nM] | IC90 ([1]; Table 4a, 48 hours) [mg/L] | IC90 ([1]; Table 4b, 48 hours) [mg/L] | Concentration at 90% Inhibition St (Septoria tritici (St); Table 4b, 48 hours) | IC90 (Septoria tritici (St); Table 4a, 48 hours) [mg/L] | IC90 (Rhizoctonia solani (Rs); Table 4a) [mg/L] | IC90 (Rhizoctonia solani (Rs); Table 4b) [mg/L] | IC90 ([2]; Table 4a, 48 hours) [mg/L] | Concentration at 90% Inhibition Pc ([2]; Table 4b, 48 hours) | IC90 (Botrtyis cinerea (Bc); Table 4a) [mg/L] | IC90 (Botrtyis cinerea (Bc); Table 4b) [mg/L] | IC90 (Diplodia maydis (Dm); Table 4a) [mg/L] | IC90 (Diplodia maydis (Dm); Table 4b) [mg/L] | IC90 [3, 6] [mg/L] | IC90 [3, 7] [mg/L] | IC90 ([4]; Table 4a) [mg/L] | IC90 ([4]; Table 4b) [mg/L] | IC50 (fungal (fACC2) ACC2) [nM] | MIC (C. krusei ATCC 6258; [8]) [mg/L] | MIC [5, 9] [mg/L] | further results |
| --- | --- | --- | --- | --- | --- | --- | --- | --- | --- | --- | --- | --- | --- | --- | --- | --- | --- | --- | --- | --- | --- |
| COc1ccc(F)cc1[C@H](Cn1c(=O)n(C(C)(C)C(=O)N2CCCC2)c(=O)c2c(C)c(-n3cccn3)sc21)OCCO [Compound I-36, (R)-1-(2-(5-fluoro-2-methoxyphenyl)-2-(2-hydroxy-ethoxy)ethyl)-5-methyl-3-(2-methyl-1-oxo-1-(pyrrolidin-1-yl)propan-2-yl)-6-(1H-pyrazol-1-yl)thieno[2,3-d]pyrimidine-2,4(1H,3H)-dione] | 3 to 10 | 2 (≈ 3.34 µM) | 2 (≈ 3.34 µM) | D (“D” provided a compound concentration of >50 ppm at 90% inhibition of fungal pathogens) | > 50 | > 50 | 10 (≈ 16.7 µM) | > 50 | D (“D” provided a compound concentration of >50 ppm at 90% inhibition of fungal pathogens) | > 50 | 10 (≈ 16.7 µM) | > 50 | > 50 | 2 (≈ 3.34 µM) | 2 (≈ 3.34 µM) | > 50 | 10 (≈ 16.7 µM) | 0.6 to 3 | 1.1 to 2 (≈ 1.83 to 3.34 µM) | 2.1 to 4 (≈ 3.5 to 6.67 µM) | MIC (C. albicans ATCC 90028; [10]): 2.1 to 4 mg/L (≈ 3.5 to 6.67 µM) |
| COc1ccc(F)cc1[C@H](Cn1c(=O)n(C(C)(C)C(=O)N2CCCC2)c(=O)c2c(C)c(-n3cccn3)sc21)OC[C@@H](C)O [Compound I-37, 1-((R)-2-(5-fluoro-2-methoxyphenyl)-2-((R)-2-hydroxy-propoxy)ethyl)-5-methyl-3-(2-methyl-1-oxo-1-(pyrrolidin-1-yl)propan-2-yl)-6-(1H-pyrazol-1-yl)thieno[2,3-d]pyrimidine-2,4(1H,3H)-dione] | 3 to 10 | 0.4 (≈ 0.652 µM) | 0.4 (≈ 0.652 µM) | D (“D” provided a compound concentration of >50 ppm at 90% inhibition of fungal pathogens) | > 50 | 10 (≈ 16.3 µM) | 2 (≈ 3.26 µM) | > 50 | D (“D” provided a compound concentration of >50 ppm at 90% inhibition of fungal pathogens) | 2 (≈ 3.26 µM) | 2 (≈ 3.26 µM) | > 50 | 10 (≈ 16.3 µM) | 2 (≈ 3.26 µM) | 2 (≈ 3.26 µM) | > 50 | 10 (≈ 16.3 µM) | 0.6 to 3 | 1.1 to 2 (≈ 1.79 to 3.26 µM) | 2.1 to 4 (≈ 3.42 to 6.52 µM) | MIC (C. albicans ATCC 90028; [10]): 2.1 to 4 mg/L (≈ 3.42 to 6.52 µM) |
| COc1ccc(F)cc1[C@H](Cn1c(=O)n(C(C)(C)C(=O)NC(C)C)c(=O)c2c(C)c(-n3cccn3)sc21)OC[C@H](C)O [Compound I-38, 2-(1-((R)-2-(5-fluoro-2-methoxyphenyl)-2-((S)-2-hydroxy-propoxy)ethyl)-5-methyl-2,4-dioxo-6-(1H-pyrazol-1-yl)-1,4-dihydrothieno[2,3-d]pyrimidin-3(2H)-yl)-N-isopropyl-2-methylpropanamide] | 10 to 40 | – | – | – | – | 10 (≈ 16.6 µM) | 2 (≈ 3.32 µM) | – | – | 2 (≈ 3.32 µM) | 2 (≈ 3.32 µM) | > 50 | 10 (≈ 16.6 µM) | – | – | > 50 | 10 (≈ 16.6 µM) | 0.6 to 3 | – | – | IC90 [1]: 0.4 mg/L (≈ 0.665 µM); Concentration at 90% Inhibition Fm ([1]; Table 4b, 48 hours): A (“A” provided a compound concentration of 0.4 ppm at 90% inhibition of fungal pathogens); IC90 (Septoria tritici (St); 48 h, Table 4a): > 50 mg/L; IC90 (Septoria tritici (St); 48 h, Table 4b): > 50 mg/L; IC90 ([2]; 48 h, Table 4a): > 50 mg/L; IC90 ([2]; 48 h, Table 4b): > 50 mg/L; IC90 [3, 11]: 2 mg/L (≈ 3.32 µM); IC90 [3, 12]: 2 mg/L (≈ 3.32 µM); MIC (C. krusei ATCC 6258; ATCC6258, 48 h): 2.1 to 4 mg/L (≈ 3.49 to 6.65 µM); MIC ([5]; ATCC22019, 48 h): > 4.1 mg/L; MIC (C. albicans ATCC 90028; ATCC90028, 48 h): > 4.1 mg/L |
| COc1ccc(F)cc1[C@H](Cn1c(=O)n(C(C)(C)C(=O)NC(C)C)c(=O)c2c(C)c(-n3cccn3)sc21)OC[C@@H](C)O [Compound I-39, 2-(1-((R)-2-(5-fluoro-2-methoxyphenyl)-2-((R)-2-hydroxy-propoxy)ethyl)-5-methyl-2,4-dioxo-6-(1H-pyrazol-1-yl)-1,4-dihydrothieno[2,3-d]pyrimidin-3(2H)-yl)-N-isopropyl-2-methylpropanamide] | 3 to 10 | – | – | – | – | 0.4 (≈ 0.665 µM) | 0.4 (≈ 0.665 µM) | – | – | 2 (≈ 3.32 µM) | 2 (≈ 3.32 µM) | 10 (≈ 16.6 µM) | 2 (≈ 3.32 µM) | – | – | 0.4 (≈ 0.665 µM) | 0.4 (≈ 0.665 µM) | 0.6 to 3 | – | – | IC90 [1]: 0.4 mg/L (≈ 0.665 µM); Concentration at 90% Inhibition Fm ([1]; Table 4b, 48 hours): A (“A” provided a compound concentration of 0.4 ppm at 90% inhibition of fungal pathogens); IC90 (Septoria tritici (St); 48 h, Table 4a): > 50 mg/L; IC90 (Septoria tritici (St); 48 h, Table 4b): 10 mg/L (≈ 16.6 µM); IC90 ([2]; 48 h, Table 4a): > 50 mg/L; IC90 ([2]; 48 h, Table 4b): 10 mg/L (≈ 16.6 µM); IC90 [3, 11]: > 50 mg/L; IC90 [3, 12]: 2 mg/L (≈ 3.32 µM); MIC (C. krusei ATCC 6258; ATCC6258, 48 h): 2.1 to 4 mg/L (≈ 3.49 to 6.65 µM); MIC ([5]; ATCC22019, 48 h): > 4.1 mg/L; MIC (C. albicans ATCC 90028; ATCC90028, 48 h): > 4.1 mg/L |
| COc1ccc(F)cc1[C@H](Cn1c(=O)n(C(C)(C)C(=O)N2CCCC2)c(=O)c2c(C)c(-n3cccn3)sc21)OC[C@H](C)O [Compound I-40, 1-((R)-2-(5-fluoro-2-methoxyphenyl)-2-((S)-2-hydroxy-propoxy)ethyl)-5-methyl-3-(2-methyl-1-oxo-1-(pyrrolidin-1-yl)propan-2-yl)-6-(1H-pyrazol-1-yl)thieno[2,3-d]pyrimidine-2,4(1H,3H)-dione] | 10 to 40 | 2 (≈ 3.26 µM) | 2 (≈ 3.26 µM) | D (“D” provided a compound concentration of >50 ppm at 90% inhibition of fungal pathogens) | > 50 | 10 (≈ 16.3 µM) | 2 (≈ 3.26 µM) | > 50 | D (“D” provided a compound concentration of >50 ppm at 90% inhibition of fungal pathogens) | > 50 | 10 (≈ 16.3 µM) | > 50 | > 50 | > 50 | 10 (≈ 16.3 µM) | > 50 | 10 (≈ 16.3 µM) | 0.6 to 3 | 0.25 to 1 (≈ 0.407 to 1.63 µM) | 2.1 to 4 (≈ 3.42 to 6.52 µM) | MIC (C. albicans ATCC 90028; [10]): > 4.1 mg/L |
| COc1ccc(F)cc1[C@H](Cn1c(=O)n(C(C)(C)C(=O)NC(C)C)c(=O)c2c(C)c(-n3cccn3)sc21)OCC(C)(C)O [Compound I-41, (R)-2-(1-(2-(5-fluoro-2-methoxyphenyl)-2-(2-hydroxy-2-methylpropoxy)ethyl)-5-methyl-2,4-dioxo-6-(1H-pyrazol-1-yl)-1,4-dihydro-thieno[2,3-d]pyrimidin-3(2H)-yl)-N-isopropyl-2-methylpropanamide] | 3 to 10 | – | – | – | – | 10 (≈ 16.2 µM) | 2 (≈ 3.25 µM) | – | – | 2 (≈ 3.25 µM) | 2 (≈ 3.25 µM) | 10 (≈ 16.2 µM) | 2 (≈ 3.25 µM) | – | – | 2 (≈ 3.25 µM) | 2 (≈ 3.25 µM) | 0.6 to 3 | – | – | IC90 [1]: 0.4 mg/L (≈ 0.65 µM); Concentration at 90% Inhibition Fm ([1]; Table 4b, 48 hours): A (“A” provided a compound concentration of 0.4 ppm at 90% inhibition of fungal pathogens); IC90 (Septoria tritici (St); 48 h, Table 4a): > 50 mg/L; IC90 (Septoria tritici (St); 48 h, Table 4b): 10 mg/L (≈ 16.2 µM); IC90 ([2]; 48 h, Table 4a): > 50 mg/L; IC90 ([2]; 48 h, Table 4b): > 50 mg/L; IC90 [3, 11]: 0.4 mg/L (≈ 0.65 µM); IC90 [3, 12]: 0.4 mg/L (≈ 0.65 µM); MIC (C. krusei ATCC 6258; ATCC6258, 48 h): > 4.1 mg/L; MIC ([5]; ATCC22019, 48 h): > 4.1 mg/L; MIC (C. albicans ATCC 90028; ATCC90028, 48 h): > 4.1 mg/L |
